From patent US10188603B2, “Topical systems and methods for treating sexual dysfunction” (priority 2013, dated 2019)

Key:
[1] = test system: micro-capillary blood flow to skin; experiment: Laser Doppler capillary blood flow in humans, 10,000 ppm NO in closed chamber (Example 5); type: in vivo, human; settings: applied to the skin at 1/10% in alcohol
Excerpt: The formulation used in these studies contained nitric oxide dispersed in a lipid matrix. […] Nitric oxide is a very rapid acting molecule, and these studies used a system that employed laser Doppler with a covered chamber. The formulation was placed into the chamber and then attached to the skin by an adhesive layer on the covering. This provided a stable measuring device as determined by multiple normal evaluations of the capillary blood flow without treatment of nitric oxide.
A known positive control, methyl nicotinate, was applied to the skin at a concentration of 1/10% in alcohol. […] The vascular dynamics are such that when the blood vessels dilate physical parameters follow Bernoulli's law. This states that as one increases the diameter of a tube containing a liquid to flow will increase but the pressure and the speed of the liquid will decrease. The laser Doppler device accurately measured these parameters.
The test product was labeled as 10,000 ppm NO (nitric oxide). The study participants had 100 mg of the test product applied in a closed Hilltop chamber on the forearm. […]
A Moor Instruments DRT4 Laser Doppler Blood Flow Monitor (Devon, England) was used in these studies. The laser Doppler technique measured blood flow in the microcapillaries of the skin that are close to the skin surface and the blood flow in underlying arterioles and venules that help to regulate skin temperature. […]

[2] = test system: capillary circulation of the skin; experiment: Laser Doppler circulation in five human subjects (Example 8); type: in vivo; settings: positive control formulation containing 0.1% methyl nicotinate
Excerpt: This example illustrates delivery of nitric oxide formulations to five human subjects, using procedures and formulations similar to those discussed in Example 5. Each person served as their own control for the testing. A Moor Instruments Laser Doppler was used to determine circulation. […] The formulations used produce positive, almost immediate results when applied to the skin which, in these studies, was manifested by vasodilatation of the cutaneous vascular system.
For each subject, the following creams were applied: a negative control formulation (containing no NO), 0.010 gram of a 10,000 ppm NO formulation, 0.020 gram of a 10,000 ppm NO formulation, and a positive control formulation containing 0.1% methyl nicotinate. The formulations were prepared using procedures similar to those discussed in Example 1.

For `COC(=O)c1cccnc1` [methyl nicotinate], the “laser Doppler response of positive control” value [1] was “rapid response typical of the vasodilator” and the “vasodilatation (laser Doppler)” value [2] was “vasodilatation was observed”.
